Measured values reported in article PMC7010297, “How the initiating ribosome copes with ppGpp to translate mRNAs” (PLoS Biology, 2020).
Several values for one entry are separate records, joined by “and”; a condition that tells them apart may be missing. Equal values may be shown once.

What was measured:
[1] = molecular target: T1, 30S IC (30S-bound IF2, Bpy-tRNAi) (Escherichia coli, UniProt P0A705); test: 30S IC formation measured by MST at increasing concentrations of IF2 with guanosine nucleotides; format: binding; details: Fig 2A
T1 construct: 6xHis (N); made in house
T1 sequence (P0A705 whole entry, looked up): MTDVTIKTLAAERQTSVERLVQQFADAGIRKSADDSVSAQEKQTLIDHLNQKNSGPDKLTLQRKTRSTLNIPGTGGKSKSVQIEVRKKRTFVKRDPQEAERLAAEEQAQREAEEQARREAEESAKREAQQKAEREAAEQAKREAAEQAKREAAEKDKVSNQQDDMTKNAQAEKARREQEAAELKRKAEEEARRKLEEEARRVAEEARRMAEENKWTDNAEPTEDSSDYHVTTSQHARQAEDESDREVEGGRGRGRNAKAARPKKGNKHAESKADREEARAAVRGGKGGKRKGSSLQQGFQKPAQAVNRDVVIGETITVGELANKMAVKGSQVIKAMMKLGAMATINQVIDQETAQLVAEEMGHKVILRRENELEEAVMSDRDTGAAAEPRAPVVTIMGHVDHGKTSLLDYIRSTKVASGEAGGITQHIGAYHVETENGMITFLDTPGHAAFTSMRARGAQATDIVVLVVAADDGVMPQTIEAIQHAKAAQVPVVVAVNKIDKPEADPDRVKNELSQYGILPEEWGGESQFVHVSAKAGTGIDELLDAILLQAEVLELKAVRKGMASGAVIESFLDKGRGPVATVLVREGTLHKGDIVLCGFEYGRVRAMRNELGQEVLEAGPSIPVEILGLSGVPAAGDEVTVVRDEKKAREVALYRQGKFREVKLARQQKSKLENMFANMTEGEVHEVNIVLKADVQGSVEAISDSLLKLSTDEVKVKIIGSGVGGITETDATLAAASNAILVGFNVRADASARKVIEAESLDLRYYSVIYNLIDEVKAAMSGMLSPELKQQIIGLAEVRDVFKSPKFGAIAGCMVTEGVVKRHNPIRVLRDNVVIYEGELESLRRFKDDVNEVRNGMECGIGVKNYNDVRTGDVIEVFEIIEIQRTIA
From the text: To monitor the interaction of initiator tRNA and 30S ribosomal subunits, we used Microscale Thermophoresis (MST) with a fluorescently labelled initiator tRNA (Bpy-tRNAi) (Fig 1B). MST allows to measure fluorescence in a constrained space. Changes on the readout derive from molecular drifts resulting from small thermal equilibrium perturbations. Upon equilibrium perturbations, the patterns of Bpy-tRNAi migration away from the observation space are related to bound and unbound states (Fig 1B). […] On the contrary, a decrease in thermophoresis indicated the dissociation of Bpy-tRNAi. The relation between fluorescence measured at both equilibriums (Ff to Fi, after and prior to the perturbation, respectively) as a function of ligand concentration allowed to determine dissociation constants of the interaction (Fig 1C).
(§1) Continuous lines indicate nonlinear regression fittings with a quadratic equation. Three measurements were performed; mean and standard deviation are plotted (S1 Data). (B) as (A) to measure the concentration dependence for each tested guanosine nucleotide at constant IF2 (1 μM). […] Continuous lines show best fits using exponential functions. (D) Formation of 70S IC as measured by Bpy-tRNAi accommodation in the P site of the ribosome; 0.1 μM 30S ICs were formed with Bpy-tRNAi and rapidly mixed with 0.3 μM 50S subunits on a stopped-flow apparatus as described in [14]. Colors are as in (C). Continuous lines show best fits using an exponential function for a single reaction step. Each stopped-flow trace results from the mean of 5 to 7 replicates.

[2] = molecular target: T2, 70S pre-IC (50S joining to 30S IC) (Escherichia coli, UniProt P0A705); test: 70S pre-IC formation by light scattering, stopped-flow; format: biochemical; design: K1, best-fit value / k2, best-fit value: unit not given here; details: for kfast (s-1) Avg: light scattering
T2 construct: 6xHis (N); made in house
T2 sequence (P0A705 whole entry, looked up): as above
Method: as §1
(§2) (A) Scheme of 70S IC formation. […] Time traces were analyzed by nonlinear regression with exponential terms. […] Formation of 70S IC, as measured by Bpy-tRNAi accommodation in the absence (F) or presence of 200 μM ppGpp (G). Time traces were analyzed by nonlinear regression with one exponential term. […] Continuous lines show best fits using an exponential function for a single reaction step. All time traces are mean values of 5 to 10 replicates. Bar graphs show mean and standard errors (error bars) derived from the nonlinear regression fitting (D,E,H,I) (S1 Data).
(§3) To measure 70S pre-IC formation, a SX-20 stopped-flow instrument (Applied Photophysics, Leatherhead, UK) was set up for LS recording with an excitation wavelength of 430 nm. Scattered light was measured at an angle of 90° without a filter. Pseudo first-order conditions were approximated by using ≥3-fold excess of 50S subunits over 30S ICs; 0.2 μM 30S ICs were rapidly mixed in the instrument with 0.6 μM 50S at 25 °C. Bpy-tRNAi accommodation was measured essentially as described elsewhere. Briefly, 0.2 μM 30S ICs were formed using Bpy-tRNAi and rapidly mixed with 0.6 μM 50S at 25 °C. Fluorescence was excited at 470 nm and measured after a 495-nm longpass filter. Individual traces (6–11 traces) were averaged, and the resulting kinetic curve was approximated by single (F = A0 + A1*exp (-kapp1*t)) or double (F = A0 + A1*exp (-kapp1*t) + A2*exp (-kapp2*t)) exponential fit using Graphpad Prism 6.0 software (GraphPad, San Diego, California).

[3] = molecular target: T3, 70S IC (Escherichia coli, UniProt P0A705); test: 70S IC formation by Bpy-tRNAi accommodation, stopped-flow; format: biochemical; design: K1, best-fit value: unit not given here; details: for A0, best-fit value / A1, best-fit value / K1, best-fit value / k2, best-fit value: fit Y=A0+A1*exp(-K1*x)+k2*x; for kfast (s-1) Avg: fluorescence
T3 construct: 6xHis (N); made in house
T3 sequence (P0A705 whole entry, looked up): as above
Method: as §1, §2, §3

[4] = molecular target: T4, 30S-bound IF2 (30S IC) (Escherichia coli, UniProt P0A705); test: ppGpp (or GDP) to GTP competitive assay for 30S IC formation by MST; format: binding; details: S4G Fig
T4 construct: 6xHis (N); made in house
Method: MST was calculated from the respective fluorescence time dependencies (S3 Fig). […] Symbols as in (B). […] Continuous lines indicate nonlinear regression fittings with quadratic (B and E) or same-site competition (G) functions. Three measurements were performed; mean and standard deviations are plotted (S1 Data).
[…] Symbols are as indicated, 3 measurements were performed, and mean and standard deviation are plotted (S1 Data). Continuous lines show nonlinear regression fittings with a same-site inhibition model. […] (PDF) Click here for additional data file.

[5] = mInfA, fit Y=A0+A1*exp(-K1*x)+k2*x
[6] = mMF1, fit Y=A0+A1*exp(-K1*x)+k2*x
[7] = mTufA, fit Y=A0+A1*exp(-K1*x)+k2*x

In the case of `Nc1nc2c(ncn2[C@@H]2O[C@H](COP(=O)(O)OP(=O)(O)OP(=O)(O)O)[C@@H](O)[C@H]2O)c(=O)[nH]1` [GTP, guanosine triphosphate], the “MST Average” value ([1]; IF2 0.16 µM) is reported as 1029.29 a.u, the “MST Average” value ([1]; IF2 0.31 µM) is reported as 1076.43 a.u and the “MST Average” value ([1]; IF2 0.63 µM) is reported as 1093.32 a.u. The “MST Average” value ([1]; IF2 1.25 µM) was 1094.97 a.u, the “MST Average” value ([1]; IF2 2.50 µM) was 1077.58 a.u and the “MST Average” value ([1]; IF2 5.00 µM) was 1077.76 a.u. For the same molecule, the “kapp of 70S pre-IC formation (LS)” value ([2]; 30S complexes formed with 0.2 mM nucleotide, mixed with 50S subunits) was 2.9 ± 0.3 s^–1, the “A0, best-fit value” [2, 5] was 1.08 and the “K1, best-fit value” [2, 5] was 1.97. The “k2, best-fit value” [2, 5] was 0.0017 and 0.00173, the “A0, best-fit value” [2, 6] was 1.05 and the “A1, best-fit value” [2, 6] was -0.035. For the same molecule, the “K1, best-fit value” [2, 6] was 1.98, the “k2, best-fit value” [2, 6] was 0.000317 and the “LS amplitude (a.u.) Avg” value ([2]; mRNA mInfA) was 0.062 a.u. The “LS amplitude (a.u.) Avg” value ([2]; mRNA mMF1) was 0.035 a.u, the “kfast (s-1) Avg” value ([2]; mRNA mMF1) was 1.98 s⁻¹ and the “LS amplitude (a.u.) Avg” value ([2]; mRNA mTufA) was 0.083 a.u. The “kfast (s-1) Avg” value ([2]; mRNA mTufA) was 5.20 s⁻¹, the “A0, best-fit value” [2, 7] was 1.11 and the “K1, best-fit value” [2, 7] was 5.20. For the same molecule, the “k2, best-fit value” [2, 7] was 0.000653, the “kapp of Bpy-tRNAi accommodation (70S IC formation)” value ([3]; 30S ICs formed with 0.2 mM nucleotide, mixed with 50S subunits) was 2.4 ± 0.2 s^–1 and the “A0, best-fit value” ([3]; mInfA) was 0.90. For the same molecule, the “A1, best-fit value” ([3]; mInfA) was 0.11, the “K1, best-fit value” ([3]; mInfA) was 1.58 and the “k2, best-fit value” ([3]; mInfA) was -0.00193. The “A0, best-fit value” ([3]; mMF1) was 0.90, the “A1, best-fit value” ([3]; mMF1) was 0.10 and the “K1, best-fit value” ([3]; mMF1) was 1.49. For the same molecule, the “k2, best-fit value” ([3]; mMF1) was -1.6e-5, the “Fluorescence Amplitude Avg” value ([3]; mRNA mInfA) was 0.108 and the “kfast (s-1) Avg” value ([3]; mRNA mInfA) was 1.58 s⁻¹. The “Fluorescence Amplitude Avg” value ([3]; mRNA mMF1) was 0.103, the “kfast (s-1) Avg” value ([3]; mRNA mMF1) was 1.49 s⁻¹ and the “Fluorescence Amplitude Avg” value ([3]; mRNA mTufA) was 0.145. For the same molecule, the “kfast (s-1) Avg” value ([3]; mRNA mTufA) was 2.69 s⁻¹, the “A0, best-fit value” ([3]; mTufA) was 0.86 and the “A1, best-fit value” ([3]; mTufA) was 0.15. The “K1, best-fit value” ([3]; mTufA) was 2.69 and the “k2, best-fit value” ([3]; mTufA) was -0.00034.

B1: mTufA: TufA mRNA with full-length 5′ UTR, in vitro transcribed, codes for EF-Tu (nucleic acid)
chain: GGUUCUAUCGCCUUUAAAGAAGGCUUUAAGAAAGCGAAACCAGUUCUGCUUGAGCCGAUCAUGAAGGUUGAAGUAGAAACUCCGGAAGAGAACACCGGUGACGUUAUCGGUGACUUGAGCCGUCGUCGUGGUAUGCUCAAAGGUCAGGAAUCUGAAGUUACUGGCGUUAAGAUCCACGCUGAAGUACCGCUGUCUGAAAUGUUCGGAUACGCAACUCAGCUGCGUUCUCUGACCAAAGGUCGUGCAUCAUACACUAUGGAAUUCCUGAAGUAUGAUGAAGCGCCGAGUAACGUUGCUCAGGCCGUAAUUGAAGCCCGUGGUAAAUAAGCCUAAGGGUUAAUACCAAAGUCCCGUGCUCUCUCCUGAAGGGGAGAGCACUAUAGUAAGGAAUAUAGCCGUGUCUAAAGAAAAAUUUGAACG
For B1, the “MST Avg” value ([4]; Log [GDP] 0.29) was 1108.89 a.u, the “MST Replicates” value ([4]; Log [GDP] 0.29) was 1106.67 a.u. and 1109.49 a.u. and 1110.53 a.u and the “MST Avg” value ([4]; Log [GDP] 0.59) was 1108.25 a.u. For the same molecule, the “MST Replicates” value ([4]; Log [GDP] 0.59) was 1104.73 a.u. and 1108.81 a.u. and 1111.20 a.u, the “MST Avg” value ([4]; Log [GDP] 0.89) was 1106.94 a.u and the “MST Replicates” value ([4]; Log [GDP] 0.89) was 1105.25 a.u. and 1107.28 a.u. and 1108.30 a.u. For the same molecule, the “MST Avg” value ([4]; Log [GDP] 1.19) was 1104.11 a.u, the “MST Replicates” value ([4]; Log [GDP] 1.19) was 1101.85 a.u. and 1104.36 a.u. and 1106.13 a.u and the “MST Avg” value ([4]; Log [GDP] 1.49) was 1094.23 a.u. The “MST Replicates” value ([4]; Log [GDP] 1.49) was 1091.94 a.u. and 1094.86 a.u. and 1095.88 a.u, the “MST Avg” value ([4]; Log [GDP] 1.80) was 1077.93 a.u and the “MST Replicates” value ([4]; Log [GDP] 1.80) was 1075.66 a.u. and 1079.00 a.u. and 1079.14 a.u. For the same molecule, the “MST Avg” value ([4]; Log [GDP] 2.10) was 1056.10 a.u, the “MST Replicates” value ([4]; Log [GDP] 2.10) was 1053.33 a.u. and 1057.00 a.u. and 1057.97 a.u and the “MST Avg” value ([4]; Log [GDP] 2.40) was 1017.56 a.u. The “MST Replicates” value ([4]; Log [GDP] 2.40) was 1014.74 a.u. and 1018.61 a.u. and 1019.33 a.u, the “MST Avg” value ([4]; Log [GDP] 2.70) was 975.78 a.u and the “MST Replicates” value ([4]; Log [GDP] 2.70) was 973.53 a.u. and 976.74 a.u. and 977.08 a.u.
